Source: article PMC8297771 (PLoS Pathogens, 2021)

How the values were obtained:
cytochrome P450 enzymes = experiment: Cytochrome P450 inhibition assay in human liver microsomes; format: in vitro ADME; conditions: 8 different cytochrome P450 enzymes
Description: The final concentrations of test article in incubation system were 0, 0.15, 0.5, 1.5, 5, 15 and 50 μM. The inhibition of CYP1A2, 2B6, 2C8, 2C9, 2C19, 2D6, and 3A4 in human liver microsomes was measured as the percentage decrease in the activity of marker metabolite formation compared to non-inhibited controls (= 100% activity). The rate of formation of isoform-specific metabolites derived from marker substrates were measured by UPLC-MS/MS. The IC50 values were calculated with the metabolites decrease percentages of test samples to vehicle samples. All incubations were performed in triplicate (Pharmaron, China).

[1] = In vivo pharmacokinetics, summary over rats and dogs; design: species or system SD rats and beagle dogs; conditions: Sprague-Dawley (rat), beagle (dog), plasma, range over rats and dogs
Description: Study design: […]). Group 1 was dosed with STP0404 at 1 mg/kg by single intravenous administration. Groups 2 to 4 were dosed with STP0404 at 20, 40 and 80 mg/kg, respectively, by single oral administration. The vehicle used for IV study was DMSO: PEG400: […] Blood samples were collected at 0.0833, 0.25, 0.5, 1, 2, 4, 8, 12 (only for PO groups) and 24 hrs post-dose for Groups 1 to 4. STP0404 concentrations in plasma samples were determined by LC-MS/MS. Preclinical Dog pharmacokinetics study (Study no. 400751-2015020201-DPK): A total of 6 male Beagle dogs were divided into two groups (3 animals/group). Following single STP0404 2 mg/kg oral and intravenous administration to Beagle Dogs, STP0404 concentration was determined in plasma, and pharmacokinetic parameters were calculated. […] The concentrations of STP0404 in plasma were determined by using a LC/MS/MS method.

[2] = tested on: Salmonella typhimurium (TA100, TA1535, TA98, TA1537) and Escherichia coli (WP2uvrA); experiment: Bacterial reverse mutation assay (GLP); conditions: five bacterial strains
Description: Bacterial reverse mutation assay (Study no. YL18407). The bacterial reverse mutation assay of STP0404 was performed in two conditions (with or without metabolic activation) for the dose range-finding test (doses of STP0404rangingfrom 2.29 to 5,000μg/plate) and the main test (doses of STP0404 ranging from 19.5 to 5,000 μg/plate) in comparison with negative control (DMSO) and active controls (sodium azide, 2-(2-furyl)-3-(5-nitro-2-furyl) acrylamide, 2-aminoanthracene, 9-aminoacridine hydrochloride). Salmonella typhimurium (TA100, TA1535) and Escherichia coli (WP2uvrA) were used for detection of base-pair substitutions. Salmonella typhimurium (TA98, TA1537) was used for detection of frameshift mutations. Chromosomal Aberration Test of STP0404 in Cultured Mammalian Cells (Study no. YL18408). Presence/absence of genotoxicity of STP0404 was determined using chromosomal aberration test carried out in CHL/IU cells. The test comprised a dose range-finding test and a main test. Micronucleus Study of STP0404 by oral administration in Rats (Study no. YL18409). STP0404 was administered orally to SD rats (3/group in preliminary test and 6/group in the main test) at dose levels of 500, 1000 and 2000 mg/kg/day once daily for 2 days in a two-test study (preliminary test and main test) to investigate the genotoxicity profile of STP0404. […] Bone marrow smear slides were evaluated (INA Research, Japan).

[3] = tested on: HIV-GFP in LEDGF/p75 knockout Jurkat cell lines (1-F10 and 2-C10); experiment: HIV-1 inhibition in infecting LEDGF/p75 knockout cells; format: cell-based; conditions: 60 nM
Description: To test for STP0404’s inhibitory effects during the late stage of HIV-1 life cycle such as the maturation step, we employed the “producing cells” setup. In T75 tissue culture flasks, 293T cells were pre-treated with and without STP0404 (0 and 60 nM) for 2 hrs prior to transfection with pD3-HIV (13 μg) and pVSV-g (6 μg), using 0.3 mg/ml polyethylenimine. After 24 hrs incubation at 37°C, the supernatant was removed and replaced with fresh media with and without STP0404 (0 and 60 nM). 48 hrs later, D3-HIV vector from each treatment group was concentrated from the collected supernatant via ultracentrifugation (22,000 rpm for 2 hrs). Following p24 quantification, using 96-well plates, similar amount of respective D3-HIV vector was used to transduce Jurkat cells in triplicates for 48 hrs. The cells were harvested and fixed with 3.7% formaldehyde before being analyzed for GFP expression using FACS (Miltenyi Biotec, VYB). Separately, the “infecting cells” setup was used to investigate the inhibitory effects of STP0404 against the early stages of HIV-1 life cycle such as the integration and transcription steps. […] All data were analyzed using GraphPad Prism (Version 9). Unpaired t tests were performed to determine the significance of the readings in respective experimental set up relative to the untreated controls. […]

[4] = target: T1, IN-RNA binding (His6 tagged IN, HIV-1 TAR RNA) (Human immunodeficiency virus type 1 group M subtype B, UniProt P12497); experiment: Alpha Screen inhibition assay for IN binding to RNA; format: biochemical
T1 construct: incubated with 100 nM His6 tagged IN
Description: Primary antiviral activity of ALLINIs was observed during virion maturation, where they inhibit IN-RNA interactions, we examined the ability of STP0404 to inhibit recombinant IN binding to synthetic TAR RNA using Alpha screen based assay. Briefly, different concentrations of STP0404 were incubated with 100 nM His6 tagged IN in buffer containing 100 mM NaCl, 1 mM MgCl2, 1 mM DTT, 1mg/mL BSA, 25 mM Tris, pH 7.4 at 4°C for 2 hrs. This mixture was then added to the nickel acceptor beads while biotinylated-TAR RNA was added to the streptavidin donor beads. After 2-hrs incubation at 4°C, the RNA mixture was added to the IN-drug mixture and the reading was taken after 1 hr incubation at 4°C by PerkinElmer Life Sciences Enspire multimode plate reader. The IC50 values were calculated by OriginLab software.

For Cc1nc2c(c(C)c(C)n2Cc2cnn(C)c2)c(-c2ccc(Cl)cc2)c1[C@H](OC(C)(C)C)C(=O)O [STP0404], which “inhibition of cytochrome P450 enzymes (in words)” value (cytochrome P450 enzymes) is on record?
The value was “low (high μM) or no inhibition (NI)”.

What about the half-life ([1]; intravenous, oral, read-out: half-life (T1/2)) of the same molecule?
The half-life was 3 to 7 h.

And the bioavailability ([1]; po, read-out: oral bioavailability (Ft))?
Its bioavailability is 50 to 93%.

What about the gene mutation-inducing potential [2] of the same molecule?
The gene mutation-inducing potential was “lacked”.

And the “infection of LEDGF/p75 knockout Jurkat T cells” value [3]?
Its value is “failed to significantly inhibit infection”.

And the IC50 [4]?
The IC50 was 20 ± 3 nM.
